In patent publication US20130274254A1, “INHIBITORS OF CYTOCHROME P450 (CYP3A4)” (Gilead Sciences, Inc., priority 2010, published 2013):

Tests used:
CYP3A4 [1] = target: T1, CYP3A4 (Homo sapiens, UniProt P08684); assay: CYP3A inhibition assay, testosterone 6β-hydroxylase activity in pooled human hepatic microsomal fraction
Protocol: (§1) Pooled (n≧15 donors) human hepatic microsomal fraction was obtained from BD-Gentest (Woburn, Mass.) who also supplied hydroxy-terfenadine, 4′-hydroxydiclofenac and NADPH regenerating system. Ritonavir was prepared from commercial Norvir® oral solution (Abbott Laboratories, Abbott Park, Ill.). Other reagents were from Sigma-Aldrich (St. Louis, Mo.) and included terfenadine, fexofenadine, BRL 15572, diclofenac and mefenamic acid.
Incubations were performed in duplicate in 50 mM potassium phosphate buffer, pH 7.4 with NADPH regenerating system used as described by the manufacturer. […] The final substrate concentrations used were equal to the apparent Km values for the activities determined under the same conditions. Inhibitors were dissolved in DMSO, and the final concentration of DMSO, from both substrate and inhibitor vehicles, was 1% (v/v). Incubations were performed at 37° C. with shaking and were initiated by addition of substrate. Aliquots were then removed at 0, 7 and 15 minutes. Samples were quenched by treatment with an acetonitrile, formic acid, water (94.8%/0.2%/5%, v/v/v) mixture containing internal standard. Precipitated protein was removed by centrifugation at 3000 rpm for 10 min and aliquots of the supernatant were then subjected to LC-MS analysis.
The LC-MS system consisted of a Waters Acquity UPLC, with a binary solvent manager and a refrigerated (8° C.) sample organizer and sample manager, interfaced to a Micromass Quattro Premier tandem mass spectrometer operating in electrospray ionization mode. The column was a Waters Acquity UPLC BEH C18 2.1×50 mm, 1.7 μm pore size. Mobile phases consisted of mixtures of acetonitrile, formic acid and water, the composition for mobile phase A being 1%/0.2%/98.8% (v/v/v) and that for mobile phase B being 94.8%/0.2%/5% (v/v/v). The injection volumes were 5 μL and the flow rate was 0.8 mL/min. Concentrations of metabolites were determined by reference to standard curves generated with authentic analytes under the same conditions as the incubations.
(§2) IC50 values (the concentration of inhibitor reducing CYP3A activity by 50%) were calculated by non-linear regression using GraphPad Prism 4.0 software and a sigmoidal model.
(§3) For midazolam hydroxylase determination the final concentrations of microsomal protein and terfenadine substrate were 0.25 mg/mL and 2.5 μM, respectively, and the LC-MS internal standard was 1α-hydroxytriazolam. For testosterone hydroxylase activity the final microsomal protein concentration was 0.5 mg/mL, the substrate concentration was 50 μM and the LC-MS internal standard was D7-labeled 6β-hydroxytestosterone. After incubation at 37° C. for 5 minutes, metabolic reactions were terminated by treatment with quench solution containing the appropriate internal standard and were subsequently centrifuged before aliquots of the supernatant were removed and diluted with 0.1% (v/v) formic acid for LC-MS analysis.
(§4) For LC-MS analysis the column was a Phenomenex Synergi Max RP 4 μm column (50×2.0 mm) and the injection volume was 5 μL. The MS/MS ion current metabolite/internal standard peak area ratios (PAR) were measured on an Applied Biosystems SciEx API4000 triple quadrupole mass spectrometer coupled to a Leap CTC PAL autosampler with a 20 μL loop and a Shimadzu LC pump with a 25 μL mixer. The initial mobile phase consisted of 94.9% water, 0.1% formic acid, and 5% acetonitrile (v/v/v) pumped at 0.5 mL/min. After 0.5 min the acetonitrile concentration was increased to 30% over 0.5 min. The acetonitrile concentration was then further increased to 100% over 0.5 min and held for 1.3 min, after which the column was re equilibrated at the initial conditions for 1.2 min. Rates of metabolite formation were determined from standard curves using PAR determined with authentic metabolite standards.

CYP3A4 [2] = target: T1, CYP3A4; assay: CYP3A inhibition assay, midazolam 1'-hydroxylase activity in pooled human hepatic microsomal fraction; assay type: biochemical; conditions: pooled human liver microsomes, pH 7.4, probe midazolam (1'-hydroxylation), 0.25 mg/mL microsomal protein
Protocol: as §1, with “acid. […]” for “acid.”
as §2
as §3, with “For midazolam hydroxylase determination the final concentrations of microsomal protein and terfenadine substrate were 0.25 mg/mL and 2.5 μM, respectively, and the LC-MS internal standard was 1α-hydroxytriazolam.” left out
as §4

T1 sequence (P08684 2-503): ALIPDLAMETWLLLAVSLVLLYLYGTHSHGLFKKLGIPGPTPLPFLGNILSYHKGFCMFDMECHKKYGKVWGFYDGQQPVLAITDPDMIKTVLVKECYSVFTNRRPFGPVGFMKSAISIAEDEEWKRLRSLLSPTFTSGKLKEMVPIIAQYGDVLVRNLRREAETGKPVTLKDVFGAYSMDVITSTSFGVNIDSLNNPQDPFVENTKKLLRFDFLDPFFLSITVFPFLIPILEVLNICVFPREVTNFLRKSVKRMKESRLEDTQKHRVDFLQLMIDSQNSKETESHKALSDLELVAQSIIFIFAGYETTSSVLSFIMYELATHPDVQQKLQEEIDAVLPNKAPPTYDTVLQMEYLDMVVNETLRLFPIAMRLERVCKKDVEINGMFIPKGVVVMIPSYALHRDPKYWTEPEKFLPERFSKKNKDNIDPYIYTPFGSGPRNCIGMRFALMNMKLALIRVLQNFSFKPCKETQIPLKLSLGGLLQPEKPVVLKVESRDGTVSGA

| Compound | IC50 (CYP3A4 [1]) | IC50 at 5 min (CYP3A4 [2]) |
| --- | --- | --- |
| CC(C)N(C)C(=O)N[C@@H](CCN1CCOCC1)C(=O)N[C@H](CC[C@H](Cc1ccccc1)NC(=O)OCc1cncs1)Cc1ccccc1 [Compound 7] | 310 nM | 0.14 µM |
| O=C(N[C@H](CC[C@H](Cc1ccccc1)NC(=O)[C@H](CCN1CCOCC1)NC(=O)N1CCCC1)Cc1ccccc1)OCc1cncs1 [Compound 10] | 320 nM | 0.22 µM |
| CN(C(=O)N[C@@H](CCN1CCOCC1)C(=O)N[C@H](CC[C@H](Cc1ccccc1)NC(=O)OCc1cncs1)Cc1ccccc1)C(C)(C)C [Compound 11] | 420 nM | 0.13 µM |
| O=C(N[C@H](CC[C@H](Cc1ccccc1)NC(=O)[C@H](CCN1CCOCC1)NC(=O)N1CCOCC1)Cc1ccccc1)OCc1cncs1 [Compound 12] | 640 nM | 0.2 µM |
| CC(C)CN(C)C(=O)N[C@@H](CCN1CCOCC1)C(=O)N[C@H](CC[C@H](Cc1ccccc1)NC(=O)OCc1cncs1)Cc1ccccc1 [Compound 14] | 320 nM | 0.13 µM |
| CN1CCN(C(=O)N[C@@H](CCN2CCOCC2)C(=O)N[C@H](CC[C@H](Cc2ccccc2)NC(=O)OCc2cncs2)Cc2ccccc2)CC1 [Compound 15] | 1100 nM | 0.41 µM |
| CN(C)C(=O)N[C@@H](CCN1CCOCC1)C(=O)N[C@H](CC[C@H](Cc1ccccc1)NC(=O)OCc1cncs1)Cc1ccccc1 [Compound 16] | 710 nM | 0.15 µM |
| CN(Cc1ccccc1)C(=O)N[C@@H](CCN1CCOCC1)C(=O)N[C@H](CC[C@H](Cc1ccccc1)NC(=O)OCc1cncs1)Cc1ccccc1 [Compound 17] | 300 nM | 0.13 µM |
| O=C(NC1CCCCC1)N[C@@H](CCN1CCOCC1)C(=O)N[C@H](CC[C@H](Cc1ccccc1)NC(=O)OCc1cncs1)Cc1ccccc1 [Compound 18] | 350 nM | 0.18 µM |
| CN(C(=O)N[C@@H](CCN1CCOCC1)C(=O)N[C@H](CC[C@H](Cc1ccccc1)NC(=O)OCc1cncs1)Cc1ccccc1)C1CCCCC1 [Compound 19] | 280 nM | 0.18 µM |
| CN(Cc1ccc(F)cc1)C(=O)N[C@@H](CCN1CCOCC1)C(=O)N[C@H](CC[C@H](Cc1ccccc1)NC(=O)OCc1cncs1)Cc1ccccc1 [Compound 20] | 360 nM | 0.11 µM |
| COCCN(C)C(=O)N[C@@H](CCN1CCOCC1)C(=O)N[C@H](CC[C@H](Cc1ccccc1)NC(=O)OCc1cncs1)Cc1ccccc1 [Compound 21] | 560 nM | 0.26 µM |
| CC(C)[C@H](NC(=O)N1CCOCC1)C(=O)N[C@H](CC[C@H](Cc1ccccc1)NC(=O)OCc1cncs1)Cc1ccccc1 [Compound 27] | 250 nM | 0.11 µM |
| CC(C)[C@H](NC(=O)N1CCN(C)CC1)C(=O)N[C@H](CC[C@H](Cc1ccccc1)NC(=O)OCc1cncs1)Cc1ccccc1 [Compound 28] | 470 nM | 0.19 µM |
| CC(C)[C@H](NC(=O)N(C)C(C)C)C(=O)N[C@H](CC[C@H](Cc1ccccc1)NC(=O)OCc1cncs1)Cc1ccccc1 [Compound 29] | 320 nM | < 0.1 µM |
| CC(=O)NCC[C@H](NC(=O)N(C)C(C)C)C(=O)N[C@H](CC[C@H](Cc1ccccc1)NC(=O)OCc1cncs1)Cc1ccccc1 [Compound 35] | 150 nM | 0.15 µM |
| CC(=O)NCC[C@H](NC(=O)N(C)C(C)C)C(=O)N[C@@H](CC[C@@H](Cc1ccccc1)NC(=O)OCc1cncs1)Cc1ccccc1 [Compound 36] | 240 nM | < 0.1 µM |
| CC(=O)NCC[C@H](NC(=O)N1CCCCC1)C(=O)N[C@H](CC[C@H](Cc1ccccc1)NC(=O)OCc1cncs1)Cc1ccccc1 [Compound 40] | 220 nM | 0.1 µM |
| CC(=O)NCC[C@H](NC(=O)N1CCCCC1)C(=O)N[C@@H](CC[C@@H](Cc1ccccc1)NC(=O)OCc1cncs1)Cc1ccccc1 [Compound 41] | 400 nM | < 0.1 µM |
| CC(C)N(C)C(=O)N[C@H](CCN1CCOCC1)C(=O)N[C@H](CC[C@H](Cc1ccccc1)NC(=O)OCc1cncs1)Cc1ccccc1 [Compound 53] | 260 nM | < 0.1 µM |
| CC(C)(C)OC(=O)N[C@@H](CCN1CCOCC1)C(=O)N[C@H](CC[C@H](Cc1ccccc1)NC(=O)OCc1cncs1)Cc1ccccc1 [Compound 54] | 410 nM | < 0.1 µM |
| CN(Cc1cccnc1)C(=O)N[C@@H](CCN1CCOCC1)C(=O)N[C@H](CC[C@H](Cc1ccccc1)NC(=O)OCc1cncs1)Cc1ccccc1 [Compound 59] | 450 nM | < 0.1 µM |
| CN(Cc1ccco1)C(=O)N[C@@H](CCN1CCOCC1)C(=O)N[C@H](CC[C@H](Cc1ccccc1)NC(=O)OCc1cncs1)Cc1ccccc1 [Compound 60] | 290 nM | 0.13 µM |
| CN(Cc1ccccn1)C(=O)N[C@@H](CCN1CCOCC1)C(=O)N[C@H](CC[C@H](Cc1ccccc1)NC(=O)OCc1cncs1)Cc1ccccc1 [Compound 61] | 530 nM | 0.19 µM |
| O=C(N[C@H](CC[C@H](Cc1ccccc1)NC(=O)[C@@H]1C[C@@H](O)CN1C(=O)OCc1ccccc1)Cc1ccccc1)OCc1cncs1 [Compound 67] | 210 nM | 0.18 µM |
| CC(C)c1nc(CN(C)C(=O)N[C@H](C(=O)N[C@H](CC[C@H](Cc2ccccc2)NC(=O)OC(C)(C)C)Cc2ccccc2)C(C)C)cs1 [Compound 70] | 1500 nM | 0.72 µM |
| CC(C)c1nc(CN(C)C(=O)N[C@H](C(=O)N[C@H](CC[C@H](Cc2ccccc2)NC(=O)OCc2cccnc2)Cc2ccccc2)C(C)C)cs1 [Compound 73] | 450 nM | 0.16 µM |
| CC(C)c1nc(CN(C)C(=O)N[C@H](C(=O)N[C@H](CC[C@H](Cc2ccccc2)NC(=O)CCc2cccs2)Cc2ccccc2)C(C)C)cs1 [Compound 89] | 2300 nM | 0.7 µM |
| Cc1ncsc1CCC(=O)N[C@H](CC[C@H](Cc1ccccc1)NC(=O)[C@@H](NC(=O)N(C)Cc1csc(C(C)C)n1)C(C)C)Cc1ccccc1 [Compound 90] | 450 nM | 0.19 µM |
